Laboratory results from patent US9540691B2, “Assays and methods for selecting a treatment regimen for a subject with depression” (THE GENERAL HOSPITAL CORPORATION, priority 2011, dated 2017).
Read-outs that look alike come from different tables or passages of the source.

Experiments:
[1] = system: MDD patients with at least one rare variant in an indicated SNP biomarker; conditions: with an SSRI
[2] = system: patients with major depressive disorder (MDD) resistant to treatment with SSRIs
Procedure: (§1) Documentation of the presence of any side effect or adverse event is completed at every visit using the SAFTEE-SI. Subjects can contact a clinician at any time between visits concerning adverse events or worsening of symptoms. Suicidal ideation is assessed at each visit. Subjects who are felt by the study clinician to be at high risk for suicide are discontinued from the study and referred for hospitalization and further treatment if clinically indicated (See Tables 4 & 5 below).
(§2) One-way analysis of variance can be used to assess differences in total number of SAFTEE-SI AEs between baseline and endpoint.
The study involved the enrollment of a total of 148 patients with MDD over the course of 12 months across 10 medical centers or hospitals in the United States. […] In accordance with the sequential parallel design, the 60-day, double-blind treatment was divided into two phases of 30 days each, with assessments performed every 10 days. […] For those randomly assigned to the placebo/placebo sequence, both responders and non-responders to placebo during the first phase remained on placebo during the second phase.

[3] = system: patients with major depressive disorder (MDD) resistant to treatment with SSRIs; remark: listed apart in the source
Procedure: as §1, §2

[4] = CACNA1C rs1006737 (AG), 13(30, 16)
[5] = COMT (Val 158) rs4633 (CC), 22(18, 9)
[6] = COMT (Val 158 Met) rs4680 (GG), 33(17, 9)
[7] = DAT (SLC6A3) rs250682 (CG), 33(33, 15)
[8] = DNMT38 rs1883729 (AG), 11(13, 8)
[9] = DNMT38 rs1883729 (AG), 11/13(32, 18)
[10] = DNMT38 rs1883729 (AG), 13(19, 10)
[11] = DRD2 (H313H) rs6275 (TT), 11(10, 5)
[12] = DRD2 (SLC26A9) rs11240594 (AG), 33(36, 20)
[13] = DRD2 (Taql Br) rs1079596 (TC), 42(18, 11)
[14] = DRD2 (Taql Br) rs1079596 (TC), 42/44(18, 11)
[15] = FDRC rs2277820 (TC), 22(30, 15)
[16] = GCHFR rs7163862 (TA), 41(37, 20)
[17] = GCHI rs8007267 (TC), 42(22, 10)
[18] = GCPH or FOLH1 rs202676 (AG), 31(23, 9)
[19] = MTHFD 1 G1958A (R653Q) rs2236225 (AG), 33(28, 16)
[20] = MTHFR G1793A rs2274976 (GA), 42(19, 5)
[21] = PCYT1A rs7639752 (AA), 11(12, 7)
[22] = RCF1 A > G rs2297291 (AA), 11(12, 7)
[23] = RCF2 (in SLC19A3) rs12659 (TT), 11(10, 7)
[24] = RCFI (in SLC19A1) rs1051266 (AA), 44(11, 6)
[25] = L-methylfolate 7.5 mg (n = 24) with SSRI
[26] = L-methylfolate 7.5 mg vs placebo
[27] = L-methylfolate 16 mg (n = 30) with SSRI
[28] = L-methylfolate 16 mg vs placebo
[29] = L-methylfolate 15 mg (n = 42) with SSRI
[30] = L-methylfolate 15 mg vs placebo

CN1c2c(nc(N)[nH]c2=O)NC[C@@H]1CNc1ccc(C(=O)N[C@@H](CCC(=O)O)C(=O)O)cc1 [6(S)-5-MTHF, 6(S)-5-methyltetrahydrofolate]
EFFECT on change in HAMD-28, PHASE I [1, 4]: −8.006
EFFECT on change in HAMD-28, PHASE II [1, 4]: −2.467
EFFECT on change in HAMD-28, POOLED PHASES [1, 4]: −4.633
EFFECT on change in HAMD-28, PHASE I [1, 5]: −10.070
EFFECT on change in HAMD-28, PHASE II [1, 5]: −10.170
EFFECT on change in HAMD-28, POOLED PHASES [1, 5]: −9.240
EFFECT on change in HAMD-28, PHASE I [1, 6]: −12.070
EFFECT on change in HAMD-28, PHASE II [1, 6]: −10.170
EFFECT on change in HAMD-28, POOLED PHASES [1, 6]: −10.880
EFFECT on change in HAMD-28, PHASE I [1, 7]: −5.722
EFFECT on change in HAMD-28, PHASE II [1, 7]: −5.768
EFFECT on change in HAMD-28, POOLED PHASES [1, 7]: −4.996
EFFECT on change in HAMD-28, PHASE I [1, 8]: −2.318
EFFECT on change in HAMD-28, PHASE II [1, 8]: −5.267
EFFECT on change in HAMD-28, POOLED PHASES [1, 8]: −4.811
EFFECT on change in HAMD-28, PHASE I [1, 9]: −6.340
EFFECT on change in HAMD-28, PHASE II [1, 9]: −4.940
EFFECT on change in HAMD-28, POOLED PHASES [1, 9]: −5.360
EFFECT on change in HAMD-28, PHASE I [1, 10]: −8.097
EFFECT on change in HAMD-28, PHASE II [1, 10]: −4.667
EFFECT on change in HAMD-28, POOLED PHASES [1, 10]: −6.748
EFFECT on change in HAMD-28, PHASE I [1, 11]: −16.560
EFFECT on change in HAMD-28, PHASE II [1, 11]: 1.667
EFFECT on change in HAMD-28, POOLED PHASES [1, 11]: −7.627
EFFECT on change in HAMD-28, PHASE I [1, 12]: −5.018
EFFECT on change in HAMD-28, PHASE II [1, 12]: −3.424
EFFECT on change in HAMD-28, POOLED PHASES [1, 12]: −3.758
EFFECT on change in HAMD-28, PHASE I [1, 13]: −10.640
EFFECT on change in HAMD-28, PHASE II [1, 13]: −3.893
EFFECT on change in HAMD-28, POOLED PHASES [1, 13]: −6.903
EFFECT on change in HAMD-28, PHASE I [1, 14]: −10.640
EFFECT on change in HAMD-28, PHASE II [1, 14]: −3.893
EFFECT on change in HAMD-28, POOLED PHASES [1, 14]: −6.903
EFFECT on change in HAMD-28, PHASE I [1, 15]: −2.634
EFFECT on change in HAMD-28, PHASE II [1, 15]: −6.232
EFFECT on change in HAMD-28, POOLED PHASES [1, 15]: −4.027
EFFECT on change in HAMD-28, PHASE I [1, 16]: −6.380
EFFECT on change in HAMD-28, PHASE II [1, 16]: −4.542
EFFECT on change in HAMD-28, POOLED PHASES [1, 16]: −4.863
EFFECT on change in HAMD-28, PHASE I [1, 17]: −7.729
EFFECT on change in HAMD-28, PHASE II [1, 17]: −5.417
EFFECT on change in HAMD-28, POOLED PHASES [1, 17]: −6.654
EFFECT on change in HAMD-28, PHASE I [1, 18]: −7.314
EFFECT on change in HAMD-28, PHASE II [1, 18]: −3.300
EFFECT on change in HAMD-28, POOLED PHASES [1, 18]: −5.402
EFFECT on change in HAMD-28, PHASE I [1, 19]: −2.742
EFFECT on change in HAMD-28, PHASE II [1, 19]: −3.762
EFFECT on change in HAMD-28, POOLED PHASES [1, 19]: −3.496
EFFECT on change in HAMD-28, PHASE I [1, 20]: −5.333
EFFECT on change in HAMD-28, PHASE II [1, 20]: 2.833
EFFECT on change in HAMD-28, POOLED PHASES [1, 20]: −5.551
EFFECT on change in HAMD-28, PHASE I [1, 21]: −10.400
EFFECT on change in HAMD-28, PHASE II [1, 21]: −3.900
EFFECT on change in HAMD-28, POOLED PHASES [1, 21]: −6.216
EFFECT on change in HAMD-28, PHASE I [1, 22]: −8.778
EFFECT on change in HAMD-28, PHASE II [1, 22]: −1.400
EFFECT on change in HAMD-28, POOLED PHASES [1, 22]: −5.458
EFFECT on change in HAMD-28, PHASE I [1, 23]: −7.571
EFFECT on change in HAMD-28, PHASE II [1, 23]: −1.400
EFFECT on change in HAMD-28, POOLED PHASES [1, 23]: −4.860
EFFECT on change in HAMD-28, PHASE I [1, 24]: −10.000
EFFECT on change in HAMD-28, PHASE II [1, 24]: −2.750
EFFECT on change in HAMD-28, POOLED PHASES [1, 24]: −7.673
Cardiovascular side effects, Frequency (%) [2, 25]: 0 (0%)
Gastrointestinal side effects, Frequency (%) [2, 25]: 9 (9.8%)
Infectious side effects, Frequency (%) [2, 25]: 6 (6.4%)
Miscellaneous side effects, Frequency (%) [2, 25]: 1 (1.1%)
Paychological [sic] side effects, Frequency (%) [2, 25]: 2 (2.1%)
Sexual side effects, Frequency (%) [2, 25]: 0 (0%)
Sleep side effects, Frequency (%) [2, 25]: 3 (3.2%)
Somatic side effects, Frequency (%) [2, 25]: 9 (8.6%)
Cardiovascular side effects, NNH [2, 26]: < placebo
Gastrointestinal side effects, NNH [2, 26]: < placebo
Infectious side effects, NNH [2, 26]: < placebo
Miscellaneous side effects, NNH [2, 26]: < placebo
Paychological [sic] side effects, NNH [2, 26]: < placebo
Sexual side effects, NNH [2, 26]: =placebo
Sleep side effects, NNH [2, 26]: < placebo
Somatic side effects, NNH [2, 26]: < placebo
Cardiovascular side effects, Frequency (%) [2, 27]: 2 (6.7%)
Gastrointestinal side effects, Frequency (%) [2, 27]: 3 (10.0%)
Infectious side effects, Frequency (%) [2, 27]: 2 (6.7%)
Miscellaneous side effects, Frequency (%) [2, 27]: 2 (6.7%)
Paychological [sic] side effects, Frequency (%) [2, 27]: 2 (6.7%)
Sexual side effects, Frequency (%) [2, 27]: 0 (0%)
Sleep side effects, Frequency (%) [2, 27]: 2 (6.7%)
Somatic side effects, Frequency (%) [2, 27]: 3 (10.0%)
Cardiovascular side effects, NNH [2, 28]: < placebo
Gastrointestinal side effects, NNH [2, 28]: < placebo
Infectious side effects, NNH [2, 28]: < placebo
Miscellaneous side effects, NNH [2, 28]: < placebo
Paychological [sic] side effects, NNH [2, 28]: < placebo
Sexual side effects, NNH [2, 28]: =placebo
Sleep side effects, NNH [2, 28]: < placebo
Somatic side effects, NNH [2, 28]: < placebo
adverse side effect when administered with an SSRI (in words) ([2]; Trial 1): does not appear to cause any adverse side effect
Cardiovascular side effects, Frequency (%) [3, 29]: (0%)
Cardiovascular side effects, Frequency (number of subjects) [3, 29]: 0
Gastrointestinal side effects, Frequency (number of subjects) [3, 29]: 7
Infectious side effects, Frequency (number of subjects) [3, 29]: 5
Miscellaneous side effects, Frequency (%) [3, 29]: (2.4%)
Miscellaneous side effects, Frequency (number of subjects) [3, 29]: 1
Psychological side effects, Frequency (%) [3, 29]: (9.5%)
Psychological side effects, Frequency (number of subjects) [3, 29]: 4
Sexual side effects, Frequency (%) [3, 29]: (2.4%)
Sexual side effects, Frequency (number of subjects) [3, 29]: 1
Sleep side effects, Frequency (%) [3, 29]: (2.4%)
Sleep side effects, Frequency (number of subjects) [3, 29]: 1
Somatic side effects, Frequency (number of subjects) [3, 29]: 6
Cardiovascular side effects, NNH [3, 30]: =placebo
Gastrointestinal side effects, NNH [3, 30]: 53
Infectious side effects, NNH [3, 30]: <placebo
Miscellaneous side effects, NNH [3, 30]: <placebo
Psychological side effects, NNH [3, 30]: <placebo
Sexual side effects, NNH [3, 30]: 98
Sleep side effects, NNH [3, 30]: <placebo
Somatic side effects, NNH [3, 30]: <placebo
number of adverse events by SAFTEE-SI vs placebo (in words) ([3]; SSRI + 15 mg/day): no significant differences
discontinuation from the study due to overall adverse side-effects or exclusion events (in words) ([3]; Trial 2, FIG. 3E): no difference
